Measured values from patent publication US20140121216A1, “INDOLEAMINE DERIVATIVES FOR THE TREATMENT OF CENTRAL NERVOUS SYSTEM DISEASES” (Adamed Sp. z o.o., priority 2011, published 2014).

Key:
[1] = tested on: α1 adrenergic receptors (rat cerebral cortex); experiment: Binding assay, α1 adrenergic receptor ([3H]prazosin); details: compound 1×10^−6 M
Protocol: (§1) The specific ligand binding to the receptors is defined as the difference between the total binding and the non-specific binding determined in the presence of an excess of unlabelled ligand.
(§2) The inhibition constants (Ki) were calculated using the Cheng Prusoff equation (Ki=IC50/(1+(L/KD)), where L=concentration of radioligand in the assay, and KD=affinity of the radioligand for the receptor). A Scatchard plot is used to determine the Kd. The IC50 values (concentration causing a half-maximal inhibition of control specific binding) and Hill coefficients (nH) were determined by non-linear regression analysis of the competition curves generated with mean replicate values using Hill equation curve fitting (Y=D+[(A−D)/(1+(C/C50)^nH)], where Y=specific binding, D=minimum specific binding, A=maximum specific binding, C=compound concentration, C50=IC50, and nH=slope factor). This analysis was performed using a software developed at Cerep (Hill software) and validated by comparison with data generated by the commercial software SigmaPlot® 4.0 for Windows® (©1997 by SPSS Inc.).
Experimental conditions for tests are given in Table 7, and results of tests for representative compounds are given in Tables 8a and 8b (α1 receptors) and in Tables 9a and 9b (α2C receptors).

[2] = biological target: T1, D2S (h), human recombinant (HEK-293 cells) (Homo sapiens, UniProt P14416); experiment: Cellular functional assay D2S (h) antagonism; assay type: cell-based; details: HEK293; compound 1×10^−6 M; stimulus dopamine 30 nM; read-out: D2-antag [%]
T1 construct: expressed in transfected cells; host or cells: HEK-293 cells
Protocol: (§3) The results are expressed as a percent of control specific agonist response ((measured specific response/control specific agonist response)×100) obtained in the presence of tested compound.
(§4) The EC50 values (concentration producing a half-maximal specific response) and IC50 values (concentration causing a half-maximal inhibition of the control specific agonist response) were determined by non-linear regression analysis of the concentration-response curves generated with mean replicate values using Hill equation curve fitting (Y=D+[(A−D)/(1+(C/C50)nH)], where Y=specific response, D=minimum specific response, A=maximum specific response, C=compound concentration, and C50=EC50 or IC50, and nH=slope factor).
(§5) For the antagonists, the apparent dissociation constants (Kb) were calculated using the modified Cheng Prusoff equation (Kb=IC50/(1+(A/EC50A)), where A=concentration of reference agonist in the assay, and EC50A=EC50 value of the reference agonist).

[3] = biological target: T2, 5-HT6 (h), human recombinant (CHO cells) (Homo sapiens, UniProt P50406); experiment: Cellular functional assay 5-HT6 (h) agonism; assay type: cell-based; details: compound 1×10^−6 M, control 10 μM serotonin, read-out: 5-HT6-ag [%]
T2 construct: expressed in transfected cells; host or cells: CHO cells
Protocol: as §3, §4, §5

[4] = biological target: T2, 5-HT6 (h), human recombinant (CHO cells); experiment: Cellular functional assay 5-HT6 (h) antagonism; assay type: cell-based; details: compound 1×10^−6 M, stimulus serotonin 100 nM, read-out: 5-HT6-antag [%]
Protocol: as §3, §4, §5

[5] = biological target: T1, D2S (h), human recombinant (HEK-293 cells); experiment: Cellular functional assay D2S (h) agonism; assay type: cell-based; details: HEK293; compound 1×10^−6 M; control 3 μM dopamine; read-out: D2-ag [%]
Protocol: as §3, §4, §5

[6] = biological target: T3, human recombinant SERT receptor (CHO cells) (Homo sapiens, UniProt P31645); experiment: Binding assay, serotonine transporter (SERT) ([3H]imipramine); details: compound 1×10^−6 M
T3 construct: expressed in transfected cells; host or cells: CHO cells
Protocol: (§6) Moreover, ability of the compounds of the invention to block potassium channel hERG was tested.
as §1
as §2, with “factor).” for “factor). This analysis was performed using a software developed at Cerep (Hill software) and validated by comparison with data generated by the commercial software SigmaPlot® 4.0 for Windows® (©1997 by SPSS Inc.).”

[7] = biological target: T4, human recombinant D3 receptors (Homo sapiens, UniProt P35462); experiment: Binding assay, dopaminergic D3 receptor ([3H]methylspiperone); details: compound 1×10^−6 M
T4 construct: purchased PerkinElmer
Protocol: as §6, §1
as §2, with “factor).” for “factor). This analysis was performed using a software developed at Cerep (Hill software) and validated by comparison with data generated by the commercial software SigmaPlot® 4.0 for Windows® (©1997 by SPSS Inc.).”

[8] = biological target: T5, 5-HT7 receptor, human recombinant (Homo sapiens, UniProt P34969); experiment: Binding assay, 5-HT7 receptor ([3H]LSD); details: compound 1×10^−6 M
T5 construct: purchased PerkinElmer
Protocol: as §6, §1
as §2, with “factor).” for “factor). This analysis was performed using a software developed at Cerep (Hill software) and validated by comparison with data generated by the commercial software SigmaPlot® 4.0 for Windows® (©1997 by SPSS Inc.).”

[9] = biological target: T6, D2 receptor, human recombinant (GeneBLAzer D2-Gqo5 CHO-K1 DA) (Homo sapiens, UniProt P14416); experiment: Binding assay, dopaminergic D2 receptor ([3H]methylspiperone); details: compound 1×10^−6 M
T6 construct: purchased Invitrogen; host or cells: CHO-K1 (GeneBLAzer D2-Gqo5 CHO-K1 DA)
Protocol: as §6, §1
as §2, with “factor).” for “factor). This analysis was performed using a software developed at Cerep (Hill software) and validated by comparison with data generated by the commercial software SigmaPlot® 4.0 for Windows® (©1997 by SPSS Inc.).”

[10] = biological target: 5-HT2A receptor, human recombinant (Homo sapiens, UniProt P28223); experiment: Binding assay, 5-HT2A receptor ([3H]ketanserin); set-up: purchased PerkinElmer; details: compound 1×10^−6 M
Protocol: as §6, §1
as §2, with “factor).” for “factor). This analysis was performed using a software developed at Cerep (Hill software) and validated by comparison with data generated by the commercial software SigmaPlot® 4.0 for Windows® (©1997 by SPSS Inc.).”

[11] = biological target: T7, 5-HT1A receptor (rat hippocampus) (Rattus norvegicus, UniProt P19327); experiment: Binding assay, 5-HT1A receptor ([3H]8-OH-DPAT); details: compound 1×10^−6 M
T7 construct: hippocampus; from tissue; host or cells: rat hippocampus
T7 sequence (P19327 1-422): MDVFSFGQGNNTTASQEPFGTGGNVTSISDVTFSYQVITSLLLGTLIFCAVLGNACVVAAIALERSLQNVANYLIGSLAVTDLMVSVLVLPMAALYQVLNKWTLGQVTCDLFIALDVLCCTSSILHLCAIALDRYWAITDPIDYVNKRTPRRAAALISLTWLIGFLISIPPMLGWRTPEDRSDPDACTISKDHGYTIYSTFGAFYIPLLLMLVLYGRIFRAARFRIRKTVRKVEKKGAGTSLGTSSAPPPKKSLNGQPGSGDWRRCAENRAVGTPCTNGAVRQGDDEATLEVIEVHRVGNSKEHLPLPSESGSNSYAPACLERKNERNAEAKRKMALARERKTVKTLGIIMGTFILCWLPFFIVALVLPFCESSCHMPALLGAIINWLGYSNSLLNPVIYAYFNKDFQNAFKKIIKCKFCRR
Protocol: as §6, §1
as §2, with “factor).” for “factor). This analysis was performed using a software developed at Cerep (Hill software) and validated by comparison with data generated by the commercial software SigmaPlot® 4.0 for Windows® (©1997 by SPSS Inc.).”

[12] = biological target: T8, 5-HT6 receptor, human recombinant (Homo sapiens, UniProt P50406); experiment: Binding assay, 5-HT6 receptor ([3H]LSD); details: compound 1×10^−6 M
T8 construct: purchased PerkinElmer
Protocol: as §6, §1
as §2, with “factor).” for “factor). This analysis was performed using a software developed at Cerep (Hill software) and validated by comparison with data generated by the commercial software SigmaPlot® 4.0 for Windows® (©1997 by SPSS Inc.).”

T2 sequence (P50406 whole entry): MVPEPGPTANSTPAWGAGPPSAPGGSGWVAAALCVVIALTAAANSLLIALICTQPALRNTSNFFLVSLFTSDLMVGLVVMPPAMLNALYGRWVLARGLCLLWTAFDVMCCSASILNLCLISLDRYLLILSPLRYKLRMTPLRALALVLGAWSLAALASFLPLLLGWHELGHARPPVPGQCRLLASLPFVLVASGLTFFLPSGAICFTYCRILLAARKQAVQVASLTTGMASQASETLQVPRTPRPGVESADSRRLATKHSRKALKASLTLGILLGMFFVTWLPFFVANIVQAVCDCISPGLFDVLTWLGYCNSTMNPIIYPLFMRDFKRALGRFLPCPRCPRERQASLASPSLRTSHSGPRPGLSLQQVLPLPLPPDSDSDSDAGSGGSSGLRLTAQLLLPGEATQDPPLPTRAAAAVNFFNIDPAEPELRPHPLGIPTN
T1 sequence (P14416 1-414 isoform P14416-2): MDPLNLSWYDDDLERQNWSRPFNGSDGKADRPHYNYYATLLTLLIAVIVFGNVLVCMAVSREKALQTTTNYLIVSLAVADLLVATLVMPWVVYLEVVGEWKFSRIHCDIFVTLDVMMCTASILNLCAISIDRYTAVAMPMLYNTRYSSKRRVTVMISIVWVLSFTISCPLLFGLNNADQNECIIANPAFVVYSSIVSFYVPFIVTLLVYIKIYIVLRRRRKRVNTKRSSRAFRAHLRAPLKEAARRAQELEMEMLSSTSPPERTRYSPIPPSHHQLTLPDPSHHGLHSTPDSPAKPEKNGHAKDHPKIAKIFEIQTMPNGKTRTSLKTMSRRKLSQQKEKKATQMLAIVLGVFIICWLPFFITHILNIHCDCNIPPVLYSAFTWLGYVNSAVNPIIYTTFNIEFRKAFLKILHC
Chain of 5-HT2A receptor, human recombinant (P28223 whole entry): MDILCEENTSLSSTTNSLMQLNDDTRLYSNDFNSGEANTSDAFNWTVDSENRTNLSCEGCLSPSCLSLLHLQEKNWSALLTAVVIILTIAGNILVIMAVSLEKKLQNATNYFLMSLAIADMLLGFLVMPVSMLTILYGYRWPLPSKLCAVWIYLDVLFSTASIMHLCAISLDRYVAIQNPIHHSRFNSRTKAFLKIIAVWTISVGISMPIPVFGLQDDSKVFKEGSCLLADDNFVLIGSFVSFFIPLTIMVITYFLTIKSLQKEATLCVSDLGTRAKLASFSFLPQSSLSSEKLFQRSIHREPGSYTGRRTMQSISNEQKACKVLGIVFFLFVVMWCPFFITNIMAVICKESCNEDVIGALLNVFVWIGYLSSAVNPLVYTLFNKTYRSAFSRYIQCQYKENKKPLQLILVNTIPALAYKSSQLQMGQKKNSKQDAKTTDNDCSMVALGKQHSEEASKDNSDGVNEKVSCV
T8 sequence (P50406 whole entry): as the sequence (P50406 whole entry) above
T6 sequence (P14416 whole entry): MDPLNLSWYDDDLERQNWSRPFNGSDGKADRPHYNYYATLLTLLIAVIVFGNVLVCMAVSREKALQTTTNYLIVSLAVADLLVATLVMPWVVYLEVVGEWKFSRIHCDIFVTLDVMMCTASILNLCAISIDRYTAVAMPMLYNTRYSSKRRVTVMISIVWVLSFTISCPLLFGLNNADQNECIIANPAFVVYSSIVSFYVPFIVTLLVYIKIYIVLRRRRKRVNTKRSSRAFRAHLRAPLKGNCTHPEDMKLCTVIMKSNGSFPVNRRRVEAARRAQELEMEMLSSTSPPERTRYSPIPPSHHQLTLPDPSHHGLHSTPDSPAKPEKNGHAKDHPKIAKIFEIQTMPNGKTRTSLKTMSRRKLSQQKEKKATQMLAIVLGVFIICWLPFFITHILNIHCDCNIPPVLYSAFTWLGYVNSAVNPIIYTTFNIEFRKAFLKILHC
T4 sequence (P35462 whole entry): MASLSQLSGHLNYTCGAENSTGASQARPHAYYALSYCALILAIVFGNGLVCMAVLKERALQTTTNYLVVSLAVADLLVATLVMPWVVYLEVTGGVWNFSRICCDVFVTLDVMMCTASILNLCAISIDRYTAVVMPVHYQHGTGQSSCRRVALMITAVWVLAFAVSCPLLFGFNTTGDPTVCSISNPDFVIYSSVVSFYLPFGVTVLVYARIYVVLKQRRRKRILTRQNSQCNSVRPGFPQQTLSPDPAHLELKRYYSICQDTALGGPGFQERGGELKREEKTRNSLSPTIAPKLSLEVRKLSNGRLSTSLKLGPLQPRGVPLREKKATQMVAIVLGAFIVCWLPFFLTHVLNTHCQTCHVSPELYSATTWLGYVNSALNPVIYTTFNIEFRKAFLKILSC
T3 sequence (P31645 whole entry): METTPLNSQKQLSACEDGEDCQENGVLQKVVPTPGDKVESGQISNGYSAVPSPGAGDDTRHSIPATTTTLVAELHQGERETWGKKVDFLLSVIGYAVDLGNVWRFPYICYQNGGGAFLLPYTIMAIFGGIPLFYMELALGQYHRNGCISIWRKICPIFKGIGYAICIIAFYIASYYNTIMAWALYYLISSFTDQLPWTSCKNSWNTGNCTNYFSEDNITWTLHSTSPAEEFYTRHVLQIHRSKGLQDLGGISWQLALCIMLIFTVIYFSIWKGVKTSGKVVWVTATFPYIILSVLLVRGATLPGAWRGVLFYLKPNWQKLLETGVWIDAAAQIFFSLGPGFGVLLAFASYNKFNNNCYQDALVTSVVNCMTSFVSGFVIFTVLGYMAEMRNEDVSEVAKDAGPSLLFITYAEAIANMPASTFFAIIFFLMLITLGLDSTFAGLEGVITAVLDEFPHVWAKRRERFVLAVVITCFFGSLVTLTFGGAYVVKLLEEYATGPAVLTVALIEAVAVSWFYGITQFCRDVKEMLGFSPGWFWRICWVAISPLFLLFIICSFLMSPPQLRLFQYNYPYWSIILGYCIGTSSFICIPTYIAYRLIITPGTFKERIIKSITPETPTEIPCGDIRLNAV
T5 sequence (P34969 whole entry): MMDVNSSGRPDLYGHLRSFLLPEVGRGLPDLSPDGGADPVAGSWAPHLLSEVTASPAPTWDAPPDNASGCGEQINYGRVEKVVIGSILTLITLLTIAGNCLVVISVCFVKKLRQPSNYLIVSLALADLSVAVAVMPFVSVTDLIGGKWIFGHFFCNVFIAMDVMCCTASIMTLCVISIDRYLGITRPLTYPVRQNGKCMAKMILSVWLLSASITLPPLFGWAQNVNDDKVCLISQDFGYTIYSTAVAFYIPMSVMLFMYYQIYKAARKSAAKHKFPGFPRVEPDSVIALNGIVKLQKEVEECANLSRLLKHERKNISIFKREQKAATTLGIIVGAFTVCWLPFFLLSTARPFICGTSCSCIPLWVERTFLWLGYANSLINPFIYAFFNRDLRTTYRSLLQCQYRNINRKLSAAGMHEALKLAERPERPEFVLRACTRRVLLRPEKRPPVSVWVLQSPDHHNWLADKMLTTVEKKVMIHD

In the case of O=S(=O)(c1ccccc1)n1ccc2c(N3CCN(CCCOc4ccccc4)CC3)cccc21 [Compound 12, 4-(4-(3-Phenoxypropyl)piperazin-1-yl)-1-(phenylsulphonyl)-1H-indole], the “α1 [%] affinity test result” value [1] is reported as 83%, the inhibition at 1 µM [2] is reported as 73% and the activation at 1 µM [3] is reported as -2%. It also gave an inhibition at 1 µM [4] of 73% and an activation at 1 µM [5] of 11%.

With O=S(=O)(c1ccccc1)n1ccc2c(N3CCN(CCCOc4ccc(F)cc4)CC3)cccc21 [Compound 15, 4-(4-(3-(4-Fluorophenoxy)propyl)piperazin-1-yl)-1-(phenylsulphonyl)-1H-indole] the “α1 [%] affinity test result” value [1] was 93%, the inhibition at 1 µM [2] was 68% and the activation at 1 µM [3] was 0%. The inhibition at 1 µM [4] was 88% and the activation at 1 µM [5] was 11%.

CC(C)Oc1ccccc1OCCCN1CCN(c2cccc3c2ccn3S(=O)(=O)c2ccccc2)CC1 [Compound 21, 4-(4-(3-(2-(1-Methylethoxy)phenoxy)propyl)piperazin-1-0)-1-(phenylsulphonyl)-1H-indole] was tested, and the “SERT [%] affinity test result” value [6] was 13%, the “D3 [%] binding assay result” value [7] was 86% and the “α1 [%] affinity test result” value [1] was 83%. The “5-HT7 [%] binding assay result” value [8] was 78%, the “D2 [%] binding assay result” value [9] was 90% and the “5-HT2A [%] binding assay result” value [10] was 80%. The “5-HT1A [%] binding assay result” value [11] was 91% and the “5-HT6 [%] binding assay result” value [12] was 97%.

With O=S(=O)(c1ccccc1)n1ccc2c(N3CCN(CCCOc4ccc5ccoc5c4)CC3)cccc21 [Compound 25, 4-(4-(3-(Benzofuran-6-yloxy)propyl)piperazin-1-yl)-1-(phenylsulphonyl)-1H-indole] the “α1 [%] affinity test result” value [1] was 25%, the inhibition at 1 µM [2] was 75% and the activation at 1 µM [3] was -4%. It also gave an inhibition at 1 µM [4] of 98% and an activation at 1 µM [5] of 30%.

For NC(=O)c1ccccc1OCCCN1CCN(c2cccc3c2ccn3Cc2ccccc2)CC1 [Compound 60, 2-[3-[4-(1-Benzylindol-4-yl)piperazin-1-yl]propoxy]benzamide], the “α1 [%] affinity test result” value [1] was 56%.

O=C1CCc2ccc(OCCCCN3CCN(c4cccc5c4ccn5Cc4ccccc4F)CC3)cc2N1 [Compound 61, 7-[4-[4-[1-[(2-Fluorophenyl)methyl]indol-4-yl]piperazin-1-yl]butoxy]-3,4-dihydro-1H-quinolin-2-one] was tested, and the “α1 [%] affinity test result” value [1] was 13%.

In the case of NC(=O)c1ccccc1OCCCN1CCN(c2cccc3c2ccn3Cc2ccccc2F)CC1 [Compound 62, 2-[3-[4-[1-[(2-Fluorophenyl)methyl]indol-4-yl]piperazin-1-yl]propoxy]-benzamide], the “α1 [%] affinity test result” value [1] is reported as 50%.

With NC(=O)c1ccccc1OCCCN1CCN(c2cccc3c2ccn3Cc2cccc(F)c2)CC1 [Compound 64, 2-[3-[4-[1-[(3-Fluorophenyl)methyl]indol-4-yl]piperazin-1-yl]propoxy]-benzamide] the “α1 [%] affinity test result” value [1] was 57%.

In the case of O=C1CCc2ccc(OCCCCN3CCN(c4cccc5c4ccn5Cc4ccc(F)cc4)CC3)cc2N1 [Compound 65, 7-[4-[4-[1-[(4-Fluorophenyl)methyl]indol-4-yl]piperazin-1-yl]butoxy]-3,4-dihydro-1H-quinolin-2-one], the “α1 [%] affinity test result” value [1] is reported as 59%.

In the case of NC(=O)c1ccccc1OCCCN1CCN(c2cccc3c2ccn3Cc2ccc(F)cc2)CC1 [Compound 66, 2-[3-[4-[1-[(4-Fluorophenyl)methyl]indol-4-yl]piperazin-1-yl]propoxy]-benzamide], the “α1 [%] affinity test result” value [1] is reported as 42%.

In the case of NC(=O)c1ccccc1OCCCN1CCN(c2cccc3c2ccn3Cc2cccc(Cl)c2)CC1 [Compound 68, 2-[3-[4-[1-[(3-Chlorophenyl)methyl]indol-4-yl]piperazin-1-yl]propoxy]-benzamide], the “α1 [%] affinity test result” value [1] is reported as 56%.

For O=S(=O)(c1ccccc1)n1ccc2c(N3CCN(CCCCOc4ccccc4)CC3)cccc21 [Compound 69, 1(Benzenesulfonyl)-4-[4-(4-phenoxybutyl)piperazin-1-yl]indole], the “α1 [%] affinity test result” value [1] was 49%.

In the case of O=S(=O)(c1ccccc1)n1ccc2c(N3CCN(CCCCOc4ccc(F)cc4)CC3)cccc21 [Compound 70, 1-(Benzenesulfonyl)-4-[4-[4-(4-fluorophenoxy)butyl]piperazin-1-yl]-indole], the “α1 [%] affinity test result” value [1] is reported as 54%.

In the case of CC(C)Oc1ccccc1OCCCCN1CCN(c2cccc3c2ccn3S(=O)(=O)c2ccccc2)CC1 [Compound 71, 1-(Benzenesulfonyl)-4-[4-[4-(2-isopropoxyphenoxy)butyl]-piperazin-1-yl]indole], the “α1 [%] affinity test result” value [1] is reported as 40%.
